Source: patent publication US11497738B2, “Di-substituted pyrazole compounds for the treatment of diseases” (FGH BIOTECH, INC., priority 2016, dated 2022)

Test system: SCD1 expression
Test: Inhibition assay: qPCR of SCD1 expression in HepG2 cells (Biological Example 1)
Format: cell-based
Conditions: Homo sapiens, 24 hours; for inhibition at 10 µM: read-out: Inhibition Percentage (%) 10 μM (SCD1 expression); for inhibition at 1 µM: read-out: Inhibition Percentage (%) 1 μM (SCD1 expression)
Description: HepG2 cells were grown in Dulbecco's Modified Eagle Medium (DMEM) containing 5% FBS and antibiotic-antimycotic in a humidified incubator at 37° C. with 5% CO2. All three components were purchased from ThermoFisher Scientific (Catalog numbers are 11995073, 26140079, and 15240062, respectively). Treatments were done in duplicates for each dose of each compound. For control and treated each treatment, 400,000 HepG2 cells were seeded onto 1 well of 24-well plate. After one day in culture, cells were treated with the test compound (1 μM and/or 10 μM, as indicated below in Table 1) for 24 hours in DMEM with 5% FBS. Compounds were diluted using DMSO from 20 mM stocks. Total RNAs were extracted using RNA extraction kit (Cat #: 45001163, Fisher Scientific) or Trizol. If Trizol was used, RNAs were treated with DNase I (cat #: 18068015, ThermoFisher Scientific) before qPCR. RNA concentrations were measured on a Nanodrop. One-step qPCR were performed using SYBR Green One Step qPCR Kit (Cat #: B25002, Biotool). 10 ng RNA was used in each 10-ul reaction. Triplicate reactions were done for each RNA sample. qPCR was performed on an ABI StepOnePlus using the program: Holding stage step 1, 50° C. 3 min, step 2, 95° C. 5 min; Cycling stage (40 cycles) step 1, 95° C. 10 sec, step 2, 60° C. 30 sec. Primer sequence was as follows: SCD1, 5′-[…]-3′/5′-[…]-3′.
All data was measured in HepG2 cells. % inhibition data of SCD1 expression are provided in Table 1. % inhibition at 10 μM is provided as follows: A≥75%; 75%>B≥50%; 50%>C≥10%. % inhibition at 1 μM is provided as follows: A1≥30%; 30%>B1≥2%. NI means no inhibition in the assay at the indicated concentration of compound tested. NT means not tested.

**Q.** How did the inhibition at 10 µM turn out when `CCCc1cc(-n2cc(-c3ccc(NS(=O)(=O)C4CC4)nc3)cn2)ccn1` [Example 5, N-(5-(1-(2-propylpyridin-4-yl)-1H-pyrazol-4-yl)pyridin-2-yl)cyclopropanesulfonamide] was run?
**A.** 10 to 50%

**Q.** With `CCCc1cc(-n2nc(C)c(-c3ccc(NCC(C)C)nc3)c2C)ccn1` [Example 34, 5-(3,5-dimethyl-1-(2-propylpyridin-4-yl)-1H-pyrazol-4-yl)-N-isobutylpyridin-2-amine] as the molecule, how does the inhibition at 1 µM read?
**A.** 2 to 30%

**Q.** What about the inhibition at 10 µM of the same molecule?
**A.** 50 to 75%

**Q.** What does the source list for `CCCc1cc(-n2nc(C)c(-c3ccc(NC4CCCC4)nc3)c2C)ccn1` [Example 40, N-cyclopentyl-5-(3,5-dimethyl-1-(2-propylpyridin-4-yl)-1H-pyrazol-4-yl)pyridin-2-amine]?
**A.** inhibition at 1 µM: ≥ 30%; inhibition at 10 µM: 50 to 75%

**Q.** With `CCCc1cc(-n2cc(-c3ccc(NS(=O)(=O)C4CC4)cc3)cn2)ccn1` [Example 1, N-(4-(1-(2-propylpyridin-4-yl)-1H-pyrazol-4-yl)phenyl)cyclopropanesulfonamide] as the molecule, how does the inhibition at 10 µM read?
**A.** > 75%

**Q.** With `CCCc1cc(-n2cc(-c3ncc(NC4CCCC4)cc3Cl)cn2)ccn1` [Example 25, 5-chloro-N-cyclopentyl-6-(1-(2-propylpyridin-4-yl)-1H-pyrazol-4-yl)pyridin-3-amine] as the molecule, how does the inhibition at 1 µM read?
**A.** ≥ 30%

**Q.** What about the inhibition at 10 µM of the same molecule?
**A.** > 75%

**Q.** Which inhibition at 10 µM does the source give for `CCCc1cc(-n2cc(-c3ccc(NS(=O)(=O)CC4CC4)cc3)cn2)ccn1` [Example 2, 1-cyclopropyl-N-(4-(1-(2-propylpyridin-4-yl)-1H-pyrazol-4-yl)phenyl)methanesulfonamide] here?
**A.** > 75%

**Q.** With `CCCc1cc(-n2cc(-c3ccc(NS(=O)(=O)C(C)C)cc3)cn2)ccn1` [Example 4, N-(4-(1-(2-propylpyridin-4-yl)-1H-pyrazol-4-yl)phenyl)propane-2-sulfonamide] as the molecule, how does the inhibition at 10 µM read?
**A.** > 75%

**Q.** What does the source list for `CCCc1cc(-n2cc(-c3ccc(NC4CCCC4)nc3)c(C)n2)ccn1` [Example 55, N-cyclopentyl-5-(3-methyl-1-(2-propylpyridin-4-yl)-1H-pyrazol-4-yl)pyridin-2-amine]?
**A.** inhibition at 1 µM: 2 to 30%; inhibition at 10 µM: > 75%

**Q.** With `CCCc1cc(-n2cc(-c3ncc(NCC(C)C)cc3Cl)cn2)ccn1` [Example 26, 5-chloro-N-isobutyl-6-(1-(2-propylpyridin-4-yl)-1H-pyrazol-4-yl)pyridin-3-amine] as the molecule, how does the inhibition at 1 µM read?
**A.** ≥ 30%

**Q.** What about the inhibition at 10 µM of the same molecule?
**A.** > 75%

**Q.** Which results are given for `CCCc1cc(-n2nc(C)c(-c3ccc(NS(=O)(=O)C(F)(F)F)nc3)c2C)ccn1` [Example 39, N-(5-(3,5-dimethyl-1-(2-propylpyridin-4-yl)-1H-pyrazol-4-yl)pyridin-2-yl)-1,1,1-trifluoromethanesulfonamide]?
**A.** inhibition at 1 µM: 2 to 30%; inhibition at 10 µM: 10 to 50%

**Q.** `CCCc1cc(-n2cc(-c3ccc(NC(C)C)cc3)cn2)ccn1` [Example 6, N-isopropyl-4-(1-(2-propylpyridin-4-yl)-1H-pyrazol-4-yl)aniline] was tested. Which inhibition at 10 µM did it give?
**A.** > 75%

**Q.** Which inhibition at 1 µM does the source give for `CCCc1cc(-n2cc(-c3ccc(NCC(C)C)cc3Cl)cn2)ccn1` [Example 14, 3-chloro-N-isobutyl-4-(1-(2-propylpyridin-4-yl)-1H-pyrazol-4-yl)aniline] here?
**A.** ≥ 30%

**Q.** What about the inhibition at 10 µM of the same molecule?
**A.** > 75%

**Q.** Which inhibition at 1 µM does the source give for `CCCc1cc(-n2cc(-c3ccc(NC4CCC4)nc3)cn2)ccn1` [Example 33, N-cyclobutyl-5-(1-(2-propylpyridin-4-yl)-1H-pyrazol-4-yl)pyridin-2-amine] here?
**A.** ≥ 30%

**Q.** What about the inhibition at 10 µM of the same molecule?
**A.** > 75%

**Q.** `CCCc1cc(-n2nc(C)c(-c3ccc(NC4CCC4)nc3)c2C)ccn1` [Example 38, N-cyclobutyl-5-(3,5-dimethyl-1-(2-propylpyridin-4-yl)-1H-pyrazol-4-yl)pyridin-2-amine] was tested. Which inhibition at 1 µM did it give?
**A.** ≥ 30%

**Q.** And the inhibition at 10 µM?
**A.** > 75%

**Q.** For `CCCc1cc(-n2cc(-c3ccc(NCC(C)C)nc3)cn2)ccn1` [Example 8, N-isobutyl-5-(1-(2-propylpyridin-4-yl)-1H-pyrazol-4-yl)pyridin-2-amine], which inhibition at 10 µM is on record?
**A.** > 75%

**Q.** How did the inhibition at 1 µM turn out when `CCCn1cc(-n2cc(-c3ccc(NS(C)(=O)=O)cc3)cn2)ccc1=O` [Example 45, N-(4-(1-(6-oxo-1-propyl-1,6-dihydropyridin-3-yl)-1H-pyrazol-4-yl)phenyl)methanesulfonamide] was run?
**A.** ≥ 30%

**Q.** What about the inhibition at 10 µM of the same molecule?
**A.** > 75%

**Q.** How did the inhibition at 10 µM turn out when `CCCc1cc(-n2cc(-c3ccc(NC4CCCC4)nc3)cn2)ccn1` [Example 32, N-cyclopentyl-5-(1-(2-propylpyridin-4-yl)-1H-pyrazol-4-yl)pyridin-2-amine] was run?
**A.** > 75%

**Q.** For `CCCc1cc(-n2cc(-c3ncc(NS(C)(=O)=O)cc3Cl)cn2)ccn1` [Example 30, N-(5-chloro-6-(1-(2-propylpyridin-4-yl)-1H-pyrazol-4-yl)pyridin-3-yl)methanesulfonamide], which inhibition at 10 µM is on record?
**A.** 50 to 75%

**Q.** What does the source list for `CCCc1cc(-n2cc(-c3ccc(NS(=O)(=O)C4CC4)cc3Cl)cn2)ccn1` [Example 10, N-(3-chloro-4-(1-(2-propylpyridin-4-yl)-1H-pyrazol-4-yl)phenyl)cyclopropanesulfonamide]?
**A.** inhibition at 1 µM: ≥ 30%; inhibition at 10 µM: > 75%

**Q.** How did the inhibition at 1 µM turn out when `CCCc1cc(-n2cc(-c3ccc(NC4CCOCC4)nc3)cn2)ccn1` [Example 52, 5-(1-(2-propylpyridin-4-yl)-1H-pyrazol-4-yl)-N-(tetrahydro-2H-pyran-4-yl)pyridin-2-amine] was run?
**A.** ≥ 30%

**Q.** And the inhibition at 10 µM?
**A.** > 75%

**Q.** Which inhibition at 1 µM does the source give for `CCCc1cc(-n2cc(-c3ccc(NS(=O)(=O)CC4CC4)cn3)cn2)ccn1` [Example 19, 1-cyclopropyl-N-(6-(1-(2-propylpyridin-4-yl)-1H-pyrazol-4-yl)pyridin-3-yl)methanesulfonamide] here?
**A.** 2 to 30%

**Q.** And the inhibition at 10 µM?
**A.** > 75%

**Q.** `CCCc1cc(-n2cc(-c3ncc(NS(=O)(=O)C4CC4)cc3Cl)cn2)ccn1` [Example 28, N-(5-chloro-6-(1-(2-propylpyridin-4-yl)-1H-pyrazol-4-yl)pyridin-3-yl)cyclopropanesulfonamide] was tested. Which inhibition at 1 µM did it give?
**A.** 2 to 30%

**Q.** What about the inhibition at 10 µM of the same molecule?
**A.** > 75%

**Q.** Which inhibition at 1 µM does the source give for `CCCc1cc(-n2cc(-c3ncc(NS(=O)(=O)CC4CC4)cc3Cl)cn2)ccn1` [Example 29, N-(5-chloro-6-(1-(2-propylpyridin-4-yl)-1H-pyrazol-4-yl)pyridin-3-yl)-1-cyclopropylmethanesulfonamide] here?
**A.** 2 to 30%

**Q.** What about the inhibition at 10 µM of the same molecule?
**A.** > 75%

**Q.** What does the source list for `CCCc1cc(-n2cc(-c3ccc(NC(C)C)cc3Cl)cn2)ccn1` [Example 13, 3-chloro-N-isopropyl-4-(1-(2-propylpyridin-4-yl)-1H-pyrazol-4-yl)aniline]?
**A.** inhibition at 1 µM: ≥ 30%; inhibition at 10 µM: > 75%

**Q.** `CCCc1cc(-n2cc(-c3ccc(NCC4CC4)cc3Cl)cn2)ccn1` [Example 17, 3-chloro-N-(cyclopropylmethyl)-4-(1-(2-propylpyridin-4-yl)-1H-pyrazol-4-yl)aniline] was tested. Which inhibition at 1 µM did it give?
**A.** ≥ 30%

**Q.** And the inhibition at 10 µM?
**A.** > 75%

**Q.** For `CCCc1cc(-n2cc(-c3ccc(NC(C)C)cn3)cn2)ccn1` [Example 21, N-isopropyl-6-(1-(2-propylpyridin-4-yl)-1H-pyrazol-4-yl)pyridin-3-amine], which inhibition at 1 µM is on record?
**A.** 2 to 30%

**Q.** And the inhibition at 10 µM?
**A.** > 75%

**Q.** What does the source list for `CCCc1cc(-n2cc(-c3ccc(NCC(C)C)cn3)cn2)ccn1` [Example 15, N-isobutyl-6-(1-(2-propylpyridin-4-yl)-1H-pyrazol-4-yl)pyridin-3-amine]?
**A.** inhibition at 1 µM: 2 to 30%; inhibition at 10 µM: > 75%

**Q.** How did the inhibition at 1 µM turn out when `CCCc1cc(-n2cc(-c3ccc(NC(C)C)nc3)c(C)n2)ccn1` [Example 56, N-isopropyl-5-(3-methyl-1-(2-propylpyridin-4-yl)-1H-pyrazol-4-yl)pyridin-2-amine] was run?
**A.** 2 to 30%

**Q.** And the inhibition at 10 µM?
**A.** > 75%

**Q.** How did the inhibition at 1 µM turn out when `CCCc1cc(-n2cc(-c3ncc(NC(C)C)cc3Cl)cn2)ccn1` [Example 24, 5-chloro-N-isopropyl-6-(1-(2-propylpyridin-4-yl)-1H-pyrazol-4-yl)pyridin-3-amine] was run?
**A.** ≥ 30%

**Q.** What about the inhibition at 10 µM of the same molecule?
**A.** > 75%

**Q.** How did the inhibition at 1 µM turn out when `CCCc1cc(-n2cc(-c3ccc(NCC(C)C)nc3)c(C)n2)ccn1` [Example 53, N-isobutyl-5-(3-methyl-1-(2-propylpyridin-4-yl)-1H-pyrazol-4-yl)pyridin-2-amine] was run?
**A.** 2 to 30%

**Q.** And the inhibition at 10 µM?
**A.** > 75%

**Q.** With `CCCc1cc(-n2cc(-c3ccc(NCC4CC4)nc3)c(C)n2)ccn1` [Example 54, N-(cyclopropylmethyl)-5-(3-methyl-1-(2-propylpyridin-4-yl)-1H-pyrazol-4-yl)pyridin-2-amine] as the molecule, how does the inhibition at 10 µM read?
**A.** 50 to 75%

**Q.** Which inhibition at 1 µM does the source give for `CCCc1cc(-n2nc(C)c(-c3ccc(NCC4CC4)nc3)c2C)ccn1` [Example 35, N-(cyclopropylmethyl)-5-(3,5-dimethyl-1-(2-propylpyridin-4-yl)-1H-pyrazol-4-yl)pyridin-2-amine] here?
**A.** 2 to 30%

**Q.** And the inhibition at 10 µM?
**A.** 50 to 75%

**Q.** Which results are given for `CCCc1cc(-n2cc(-c3ncc(NCC4CC4)cc3Cl)cn2)ccn1` [Example 27, 5-chloro-N-(cyclopropylmethyl)-6-(1-(2-propylpyridin-4-yl)-1H-pyrazol-4-yl)pyridin-3-amine]?
**A.** inhibition at 1 µM: ≥ 30%; inhibition at 10 µM: > 75%
